Assay results reported in US20130157949A1, “Novel Peptides for Wound Healing” (GENE SIGNAL INTERNATIONAL SA, priority 2010, published 2013).

What was measured:
[1] = tested on: trans-dermal wounds; experiment: wound healing of trans-dermal wounds in mice, topical application; type: in vivo; settings: for % healing at day 1 post treatment / % healing at day 2 post treatment / % healing at day 3 post treatment / % healing at day 4 post treatment: topical 0.5 mg/ml (5 mg/kg), 1 application/day, 5 mm punch wounds; for speed of wound healing compared with Vehicle / 156A protein: topical 0.5 mg/ml, time course over 4 days
Protocol: The vehicle (Batch A) was administered by topical application at a standardized volume of 10 ml/kg for all applications. The peptides of the invention, the protein 156A or the peptides 2, 6 and 9 were administered by topical application at the concentration of 0.5 mg/ml in the vehicle. The protocols of treatment were as it follows: • Group 1: (Batch A, Vehicle): 1 topical application 10 minutes after wounding • Group 2: (Peptide 7, 0.5 mg/ml): 1 topical application 10 minutes after wounding • Group 3: (Peptide 10, 0.5 mg/ml): 1 topical application 10 minutes after wounding • Group 4: (Peptide 11, 0.5 mg/ml): 1 topical application 10 minutes after wounding • Group 5: (Peptide 7B, 0.5 mg/ml): 1 topical application 10 minutes after wounding. • Group 6: (Peptide 2, 0.5 mg/ml): 1 topical application 10 minutes after wounding. • Group 7: (Peptide 6, 0.5 mg/ml): 1 topical application 10 minutes after wounding. • Group 8: (Peptide 9, 0.5 mg/ml): 1 topical application 10 minutes after wounding. • Group 9: (Protein 156A, 0.5 mg/mL): 1 topical application 10 minutes after wounding.
Healthy female BALBC Swiss mice were anesthetized by IP injection of Ketamine-Xylazine (80 mg/kg-12 mg/kg; Ref. K-113, Sigma, France). Two trans-dermal wounds, each of 5 mm in width and about 1 to 2 mm in depth were realized in the right and the left flanks of each mouse using 5 mm punch.
At D1, and 10 min post-injury of the animals, the mice were randomized into 9 groups of 3 mice each.
All treatments were realized by topical application at the frequency of 1 topical application/day, for 4 days. Animals of group 1 were treated with the vehicle solution (Batch A). Animals of groups 2 to 9 were treated with the indicated peptide or with the 156A protein at a dose of 5 mg/kg.

[2] = tested on: human microvascular endothelial cells (HMEC); experiment: in vitro angiogenesis assay (Matrigel, endothelial tube formation); type: cell-based; settings: for in vitro angiogenesis-inducing activity: 400 μg/ml final concentration, images at 6 h post incubation; for classification of in vitro angiogenesis inducing activity: 400 μg/ml, rank order among peptides
Protocol: Angiogenesis of human microvascular endothelial cells (HMEC) was induced in vitro using a Matrigel assay described by Grant et α1 (1989, Cell, 1989; 58:933). This method is based on the differentiation of endothelial cells to form capillary structures on a Matrigel Matrix. Matrigel is prepared the Engelbreth-Holm-Swarm (EHS) mouse tumor, which represents a complex mixture of basement membrane proteins including type IV collagen, entactin, proteo-heparan sulfate and other growth factors.
Briefly, 250 μl of Matrigel were transferred to each well of a 24-well culture plate and incubated at 37° C. for 30 min to allow for the matrix solution to solidify. HMEC grown in complete growth medium EGM-2MV were harvested by trypsin, suspended in the same growth medium and 500 μl containing 70 000 cells were added on top of the solidified Matrigel in each well and in the presence or absence of protein. Cells were maintained in a humidified atmosphere air containing 5% CO2 at 37° C. for 18-24 hrs. Endothelial tube formation was observed and photographed under an inverted light microscope.
The designed small peptides 7 (SEQ ID NO: 1), 10 (SEQ ID NO: 3), and 11 (SEQ ID NO: 4) were synthesized and tested for their in vitro angiogenesis-inducing activities (as described in Methods here above).
The results of the in vitro angiogenesis assay were presented in FIG. 1, using HMEC and 400 μg/ml final concentration of each peptide. Images were taken at 6 h post incubation.

[3] = tested on: MAPK (Erk1 and 2); experiment: activation status of MAPK (pErk1/2) by western-blot in HMEC; type: cell-based, human; settings: immunoblot pErk1/2
Protocol: The activation status of MAPK was determined by western-blot using an anti-activated MAPK (pErk1/2) antibody, and anti-GAPDH mAb as internal standard.
We have also investigated the status of the mitogen activated protein kinase (MAPK), as it is well established that it represents another cascade of intracellular signaling could be implicated in the regulation of VEGF expression.

[4] = tested on: VEGFA mRNA; experiment: VEGFA expression by real time quantitative PCR in HMEC; type: cell-based, human; settings: 400 μg/ml, 6 h, QPCR
Protocol: After exposure to the indicated concentrations of peptide 7 or peptide 10 issued from the recombinant protein GS-156A or vehicle for 24 h, HMEC (5×10^5 cells/ml), total mRNA were isolated using NucleoSpin RNA II kit. RNA yields and purity were assessed by spectrophotometric analysis. The real-time RT-PCR was performed as previously described (Voghel et al., 2008). […] The real-time PCR reactions were carried out with the DNA Engine OPTICON 2 continuous fluorescence detector (MJ Research, Waltham, Mass., U.S.A.). The results were quantified using the equation: CopyTF:CopyGAPDH=2C(t)GAPDH−C(t)TF. All PCR products were analyzed by electrophoresis on a 1.5% agarose gel, visualized with ethidium bromide, and analyzed using the Genesnap 6.00.26 software (Syngene, Cambridge, U.K.). […]
The influence of peptide 7 and peptide 10 on VEGFA expression was investigated. For that, HMEC were incubated with either peptide 7 (400 μg/ml final concentration), or peptide 10 (400 μg/ml final concentration) for 6 h, followed by measuring the expression of VEGFA by real time quantitative PCR (QPCR).

[5] = tested on: VEGFA protein; experiment: VEGFA protein by sandwich ELISA in HMEC culture medium; type: cell-based, human
Protocol: Serum-deprived HMEC were incubated with different concentrations of peptide 7 or peptide 10 or vehicle […]. After 3 washes with ice-cold PBS, cells were suspended with the protein extraction buffer (PEB) (20 mM Tris-HCl pH 7.5, 150 mM NaCl, 1 mM EDTA, 1 mM EGTA, 1% Triton, 25 mM sodium pyrophosphate, 1 mM β-glycero-phosphate, 1 mM Na3Vo4, 1 μg/ml leupeptine, 1 μM PMSF). The protein content was measured by Bradford. VEGFA concentration in the culture medium or in the extracts was determined by human VEGFA Sandwich ELISA kit (Cell Signaling technology) according to the manufacturer's instructions.

[6] = tested on: Protein Kinase B (Akt); experiment: activation status of protein kinase B (pAkt) by western-blot in HMEC; type: cell-based, human; settings: 400 μg/ml, 10 min and 30 min post incubation, immunoblot
Protocol: The activation status of pAkt was determined by western-blot using an anti-phosphoserine 473 pAkt antibody, and anti-GAPDH mAb as internal standard.
The status of Akt in the HMEC following incubation with either peptide 7 or peptide 10 was investigated.

[7] = tested on: trans-dermal wounds in diabetic mice; experiment: wound healing in diabetic mice, subcutaneous injection beneath the wound; type: in vivo, ob/ob C57BL6/J mice; settings: 2 mg/ml or 5 mg/ml, sb injection 200 μl/day for 4 days, 8 mm punch wounds
Protocol: Diabetic female ob/ob C57BL6/J mice were anesthetized by IP injection of Ketamine-Xylazine (80 mg/kg-12 mg/kg; Ref. K-113, Sigma, France). Two trans-dermal wounds, each of 8 mm in width and about 1 to 2 mm in depth were realized in the right flank of each mouse using 8 mm punch.
At D1, and 10 min post-injury of the animals, the mice were randomized into 3 groups of 5 mice each.
All treatments were realized by subcutaneous (sb) injections beneath the wounded area at the frequency of 1 sb injection/day, for 4 days. Animals of group 1 were injected with the vehicle solution (Batch A; 200 μl/injection, beneath the wounded area). Animals of groups 2 were sb injected with P7 solution in vehicle (2 mg of P7/ml of vehicle) (200 μl/injection; 16 mg/kg; beneath the wounded area). Animals of groups 3 were sb injected with P7 solution in vehicle (5 mg of P7/ml of vehicle) (200 μl/injection; 40 mg/kg; beneath the wounded area).

Substance | % healing at day 1 post treatment [1] [%] | % healing at day 2 post treatment [1] [%] | % healing at day 3 post treatment [1] [%] | % healing at day 4 post treatment [1] [%] | speed of wound healing compared with Vehicle / 156A protein [1] | in vitro angiogenesis-inducing activity [2] | classification of in vitro angiogenesis inducing activity [2] | level of activation of Erk1 and 2 (MAPK) relative to Control [3] | VEGFA mRNA higher than Control (no peptide) [4] | increases of VEGFA-biosynthesis and excretion ([5]; 400 μg/ml) | increase in VEGF protein within the culture medium (peak) ([5]; 400 μg/ml of peptide, p<0.001) | level of activated Akt relative to Control [6] | healing of the wounds in diabetic mice compared to control [7]
ELDLQASL [Peptide 7B, fragment of the protein 156A, chemically synthesized] | 33.2 | 56.9 | 63.7 | 76.6 | healed faster than the wounds treated with Vehicle or with the 156A protein |  |  |  |  |  |  |  | 
FQRLLKQ [Peptide 9, comparative fragment of the 156A protein without enhanced efficiency] |  |  |  |  | healed slower than the wounds treated with Vehicle |  |  |  |  |  |  |  | 
QSQKVPRQVQS [Peptide 11, fragment of the protein 156A, chemically synthesized] | 41.9 | 52.1 | 58.4 | 64.4 | healed faster than the wounds treated with Vehicle or with the 156A protein | strong in vitro angiogenesis-inducing activity | peptide 7>peptide 10>peptide 11 |  |  |  |  |  | 
RLNRSDSDSSTLAKK [Peptide 2, comparative fragment of the 156A protein without enhanced efficiency] |  |  |  |  | healed slower than the wounds treated with Vehicle |  |  |  |  |  |  |  | 
RSLRVKRTVCQSVLR [Peptide 6, comparative fragment of the 156A protein without enhanced efficiency] |  |  |  |  | healed slower than the wounds treated with Vehicle |  |  |  |  |  |  |  | 
TQECPVRTSLDRELDLQASL [Peptide 7, fragment of the protein 156A, chemically synthesized] | 52.8 | 60.1 | 65.6 | 82.9 | healed faster than the wounds treated with Vehicle or with the 156A protein | strong in vitro angiogenesis-inducing activity | peptide 7>peptide 10>peptide 11 | not significant variations in level of activation of Erk1 and 2 | about 170% | about 2 folds | about 97% | much higher level of activated Akt | strong healing of the wounds
VSKDVCRL [Peptide 10, fragment of the protein 156A, chemically synthesized] | 42.8 | 61.3 | 65.6 | 78.9 | healed faster than the wounds treated with Vehicle or with the 156A protein | strong in vitro angiogenesis-inducing activity | peptide 7>peptide 10>peptide 11 | not significant variations in level of activation of Erk1 and 2 | about 60% |  |  | much higher level of activated Akt | 
